Test results: PubChem BioAssay (NCI)
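Following 48 hours of exposure in 96-well plates, responses at five concentrations were used to interpolate endpoints linearly. TGI denotes the concentration required for complete inhibition of growth.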

Tests used:
Experiment in all cases: inhibition of tumour cell growth, NCI panel, 48 h
[1] = system: 786-0 renal
[2] = system: A498 renal
[3] = system: A549 NSCLC
[4] = system: ACHN renal
[5] = system: BT-549 breast
[6] = system: CAKI-1 renal
[7] = system: CCRF-CEM leukemia
[8] = system: COLO 205 colon
[9] = system: DU-145 prostate
[10] = system: EKVX NSCLC
[11] = system: HCT-116 colon
[12] = system: HCT-15 colon
[13] = system: HL-60(TB) leukemia
[14] = system: HOP-92 NSCLC
[15] = system: HS 578T breast
[16] = system: HT29 colon
[17] = system: IGROV1 ovarian
[18] = system: K-562 leukemia
[19] = system: KM12 colon
[20] = system: LOX IMVI melanoma
[21] = system: MALME-3M melanoma
[22] = system: MCF7 breast
[23] = system: MDA-MB-231 breast
[24] = system: MDA-MB-435
[25] = system: MDA-N
[26] = system: MOLT-4 leukemia
[27] = system: NCI-H226 lung
[28] = system: NCI-H23 lung
[29] = system: NCI-H460 lung
[30] = system: NCI-H522 lung
[31] = system: NCI/ADR-RES ovarian
[32] = system: OVCAR-4 ovarian
[33] = system: OVCAR-8 ovarian
[34] = system: PC-3 prostate
[35] = system: RPMI-8226 leukemia
[36] = system: RXF 393 renal
[37] = system: SF-268 CNS
[38] = system: SF-295 CNS
[39] = system: SF-539 CNS
[40] = system: SK-MEL-2 melanoma
[41] = system: SK-MEL-28 melanoma
[42] = system: SK-OV-3 ovarian
[43] = system: SN12C renal
[44] = system: SNB-19 CNS
[45] = system: SNB-75 CNS
[46] = system: SR leukemia
[47] = system: SW-620 colon
[48] = system: T-47D breast
[49] = system: TK-10 renal
[50] = system: U251 CNS
[51] = system: UACC-257 melanoma
[52] = system: UACC-62 melanoma
[53] = system: UO-31 renal
[54] = system: HCC-2998 colon
[55] = system: HOP-62 NSCLC
[56] = system: M14 melanoma
[57] = system: OVCAR-3 ovarian
[58] = system: OVCAR-5 ovarian
[59] = system: SK-MEL-5 melanoma

## Nc1cc([N+](=O)[O-])ccc1C(=O)N1CCC[C@H]1CO
[1]
  TGI: > 100 µM
[2]
  TGI: > 100 µM
[3]
  TGI: > 100 µM
[4]
  TGI: > 100 µM
[5]
  TGI: > 100 µM
[6]
  TGI: > 100 µM
[7]
  TGI: > 100 µM
[8]
  TGI: > 100 µM
[9]
  TGI: > 100 µM
[10]
  TGI: > 100 µM
[11]
  TGI: > 100 µM
[12]
  TGI: > 100 µM
[13]
  TGI: > 100 µM
[14]
  TGI: > 100 µM
[15]
  TGI: > 100 µM
[16]
  TGI: > 100 µM
[17]
  TGI: > 100 µM
[18]
  TGI: > 100 µM
[19]
  TGI: > 100 µM
[20]
  TGI: > 100 µM
[21]
  TGI: > 100 µM
[22]
  TGI: > 100 µM
[23]
  TGI: > 100 µM
[24]
  TGI: > 100 µM
[25]
  TGI: > 100 µM
[26]
  TGI: > 100 µM
[27]
  TGI: > 100 µM
[28]
  TGI: > 100 µM
[29]
  TGI: > 100 µM
[30]
  TGI: > 100 µM
[31]
  TGI: > 100 µM
[32]
  TGI: > 100 µM
[33]
  TGI: > 100 µM
[34]
  TGI: > 100 µM
[35]
  TGI: > 100 µM
[36]
  TGI: > 100 µM
[37]
  TGI: > 100 µM
[38]
  TGI: > 100 µM
[39]
  TGI: > 100 µM
[40]
  TGI: > 100 µM
[41]
  TGI: > 100 µM
[42]
  TGI: > 100 µM
[43]
  TGI: > 100 µM
[44]
  TGI: > 100 µM
[45]
  TGI: > 100 µM
[46]
  TGI: > 100 µM
[47]
  TGI: > 100 µM
[48]
  TGI: > 100 µM
[49]
  TGI: > 100 µM
[50]
  TGI: > 100 µM
[51]
  TGI: > 100 µM
[52]
  TGI: > 100 µM
[53]
  TGI: > 100 µM

## O=C(O)c1c2c(cc3c1CC(Cc1ccccc1)C3=O)CCC2 (configuration not stated)
[1]
  TGI: > 100 µM
[2]
  TGI: > 100 µM
[3]
  TGI: 38 µM
[4]
  TGI: > 100 µM
[5]
  TGI: > 100 µM
[6]
  TGI: > 100 µM
[7]
  TGI: > 100 µM
[8]
  TGI: > 100 µM
[9]
  TGI: > 100 µM
[10]
  TGI: > 100 µM
[54]
  TGI: > 100 µM
[11]
  TGI: > 100 µM
[12]
  TGI: > 100 µM
[13]
  TGI: 42.3 µM
[55]
  TGI: > 100 µM
[14]
  TGI: > 100 µM
[15]
  TGI: > 100 µM
[16]
  TGI: > 100 µM
[17]
  TGI: > 100 µM
[18]
  TGI: > 100 µM
[19]
  TGI: > 100 µM
[20]
  TGI: > 100 µM
[56]
  TGI: > 100 µM
[21]
  TGI: > 100 µM
[22]
  TGI: > 100 µM
[23]
  TGI: > 100 µM
[24]
  TGI: > 100 µM
[25]
  TGI: > 100 µM
[26]
  TGI: > 100 µM
[27]
  TGI: > 100 µM
[28]
  TGI: > 100 µM
[29]
  TGI: > 100 µM
[30]
  TGI: > 100 µM
[31]
  TGI: > 100 µM
[57]
  TGI: > 100 µM
[32]
  TGI: > 100 µM
[58]
  TGI: > 100 µM
[33]
  TGI: > 100 µM
[34]
  TGI: > 100 µM
[35]
  TGI: > 100 µM
[36]
  TGI: > 100 µM
[37]
  TGI: > 100 µM
[38]
  TGI: > 100 µM
[39]
  TGI: > 100 µM
[40]
  TGI: > 100 µM
[41]
  TGI: > 100 µM
[59]
  TGI: > 100 µM
[42]
  TGI: > 100 µM
[43]
  TGI: > 100 µM
[44]
  TGI: > 100 µM
[45]
  TGI: > 100 µM
[46]
  TGI: > 100 µM
[47]
  TGI: > 100 µM
[48]
  TGI: > 100 µM
[49]
  TGI: > 100 µM
[50]
  TGI: > 100 µM
[51]
  TGI: > 100 µM
[52]
  TGI: > 100 µM
[53]
  TGI: 30.5 µM
